The record followed here is US8008298B2, “Pyrrolopyrazine kinase inhibitors” (Roche Palo Alto, priority 2008, dated 2011).

`COCc1ccc(-c2cnc3[nH]cc(C(=O)C(C)(C)C)c3n2)cc1` [Example I-132, 1-[2-(4-Methoxymethyl-phenyl)-5H-pyrrolo[2,3-b]pyrazin-7-yl]-2,2-dimethyl-propan-1-one]: the melting point fell in the range of 191 to 192 °C.

Consider `COc1ccccc1-c1cnc2[nH]cc(C(=O)C(C)(C)C)c2n1` [Example I-133, 1-[2-(2-Methoxy-phenyl)-5H-pyrrolo[2,3-b]pyrazin-7-yl]-2,2-dimethyl-propan-1-one], for which the melting point lay in the range of 199.5 to 200.7 °C.

With `COc1cccc(-c2cnc3[nH]cc(C(=O)C(C)(C)C)c3n2)c1` [Example I-134, 1-[2-(3-Methoxy-phenyl)-5H-pyrrolo[2,3-b]pyrazin-7-yl]-2,2-dimethyl-propan-1-one], the melting point was in the range of 197.4 to 198.8 °C.

With `CC(C)(C)C(=O)c1c[nH]c2ncc(-c3cccc(C(=O)NC4CCCC4)c3)nc12` [Example I-136, N-Cyclopentyl-3-[7-(2,2-dimethyl-propionyl)-5H-pyrrolo[2,3-b]pyrazin-2-yl]-benzamide], the melting point lay within 227 to 228.5 °C.

`CC(C)(C)C(=O)c1c[nH]c2ncc(-c3cccc(O)c3)nc12` [Example I-141, 1-[2-(3-Hydroxy-phenyl)-5H-pyrrolo[2,3-b]pyrazin-7-yl]-2,2-dimethyl-propan-1-one] returned a melting point of 267 to 268 °C.

In turn, `COCOc1cc(-c2cnc3[nH]cc(C(=O)C(C)(C)C)c3n2)cc(N2CCCC2)c1` [Example I-151, 1-[2-(3-Methoxymethoxy-5-pyrrolidin-1-yl-phenyl)-5H-pyrrolo[2,3-b]pyrazin-7-yl]-2,2-dimethyl-propan-1-one] had a melting point of 229 to 230 °C.

On to `CC(C)Oc1cc(-c2cnc3[nH]cc(C(=O)C(C)(C)C)c3n2)cc(N2CCCC2)c1` [Example I-152, 1-[2-(3-Isopropoxy-5-pyrrolidin-1-yl-phenyl)-5H-pyrrolo[2,3-b]pyrazin-7-yl]-2,2-dimethyl-propan-1-one], for which the melting point lay in the range of 233 to 235 °C.

`COc1cc(-c2cnc3[nH]cc(C(=O)C4(C)CCCCC4)c3n2)cc(N2CCSCC2)c1` [Example I-155, [2-(3-Methoxy-5-thiomorpholin-4-yl-phenyl)-5H-pyrrolo[2,3-b]pyrazin-7-yl]-(1-methyl-cyclohexyl)-methanone]: the melting point lay within 212 to 214 °C.

Regarding `CC(C)(C)C(=O)c1c[nH]c2ncc(-c3cccc(N4CCC5(CCSC5)C4)c3)nc12` (stereo not drawn) [Example I-168, 2,2-Dimethyl-1-{2-[3-(2-thia-7-aza-spiro[4.4]non-7-yl)-phenyl]-5H-pyrrolo[2,3-b]pyrazin-7-yl}-propan-1-one], the melting point lay within 239 to 241 °C.

Take `COc1ccc(COc2cccc(-c3cnc4[nH]cc(C(=O)NC(C)C)c4n3)c2)cc1` [Example I-229, 2-[3-(4-Methoxy-benzyloxy)-phenyl]-5H-pyrrolo[2,3-b]pyrazine-7-carboxylic acid isopropylamide]: the melting point lay within 215 to 216 °C.

In turn, `COCC1CCCN1c1cccc(-c2cnc3[nH]cc(C(=O)NC(C)C)c3n2)c1` (stereo not drawn) [Example I-230, 2-[3-(2-Methoxymethyl-pyrrolidin-1-yl)-phenyl]-5H-pyrrolo[2,3-b]pyrazine-7-carboxylic acid isopropylamide] came in with a melting point of 187 to 190 °C.

Regarding `Cc1nnc(-c2cccc(-c3cnc4[nH]cc(C(=O)C(C)(C)C)c4n3)c2)o1` [Example I-325, 2,2-Dimethyl-1-{2-[3-(5-methyl-[1,3,4]oxadiazol-2-yl)-phenyl]-5H-pyrrolo[2,3-b]pyrazin-7-yl}-propan-1-one], the melting point is 260.9 to 264.4 °C.

`Cc1cc(-c2cnc3[nH]cc(C(=O)C(C)(C)C)c3n2)cc(C(C)(C)C)c1` [Example I-334, 1-[2-(3-tert-Butyl-5-methyl-phenyl)-5H-pyrrolo[2,3-b]pyrazin-7-yl]-2,2-dimethyl-propan-1-one] returned a melting point of 234.9 to 236.1 °C.

Regarding `CC(C)(C)C(=O)c1c[nH]c2ncc(-c3cccc(-c4ccccc4)c3)nc12` [Example I-335, 1-(2-Biphenyl-3-yl-5H-pyrrolo[2,3-b]pyrazin-7-yl)-2,2-dimethyl-propan-1-one], the melting point lay in the range of 219.9 to 221.1 °C.

The molecule `CC(C)(C)OCc1cccc(-c2cnc3[nH]cc(C(=O)C(C)(C)C)c3n2)c1` [Example I-336, 1-[2-(3-tert-Butoxymethyl-phenyl)-5H-pyrrolo[2,3-b]pyrazin-7-yl]-2,2-dimethyl-propan-1-one] gave a melting point of 202 to 203 °C.

`CC(C)c1cccc(-c2cnc3[nH]cc(C(=O)C(C)(C)C)c3n2)c1` [Example I-337, 1-[2-(3-Isopropyl-phenyl)-5H-pyrrolo[2,3-b]pyrazin-7-yl]-2,2-dimethyl-propan-1-one] came in with a melting point of 197 to 198 °C.

For the molecule `CC(C)(C)C(=O)c1c[nH]c2ncc(-c3ccc(F)c(Cl)c3)nc12` [Example I-341, 1-[2-(3-Chloro-4-fluoro-phenyl)-5H-pyrrolo[2,3-b]pyrazin-7-yl]-2,2-dimethyl-propan-1-one], the melting point is 233 to 234 °C.

Molecule `CC(C)(C)C(=O)c1c[nH]c2ncc(-c3cccc(-c4cnc[nH]4)c3)nc12` [Example I-346, 1-{2-[3-(3H-Imidazol-4-yl)-phenyl]-5H-pyrrolo[2,3-b]pyrazin-7-yl}-2,2-dimethyl-propan-1-one] gave a melting point of 287 to 288 °C.

The molecule `CC(C)(C)C(=O)c1c[nH]c2ncc(-c3cccc(C4=CCCCC4)c3)nc12` [Example I-352, 1-[2-(3-Cyclohex-1-enyl-phenyl)-5H-pyrrolo[2,3-b]pyrazin-7-yl]-2,2-dimethyl-propan-1-one] had a melting point of 188 to 190 °C.

As for `CC(C)(C)C(=O)c1c[nH]c2ncc(-c3ccc(-c4ccccc4)cc3)nc12` [Example I-355, 1-(2-Biphenyl-4-yl-5H-pyrrolo[2,3-b]pyrazin-7-yl)-2,2-dimethyl-propan-1-one], the melting point fell in the range of 275 to 277 °C.

In turn, `Cc1nnc(-c2ccc(-c3cnc4[nH]cc(C(=O)C(C)(C)C)c4n3)cc2)o1` [Example I-357, 2,2-Dimethyl-1-{2-[4-(5-methyl-[1,3,4]oxadiazol-2-yl)-phenyl]-5H-pyrrolo[2,3-b]pyrazin-7-yl}-propan-1-one] yielded a melting point greater than 300 °C.

`CC(C)(C)C(=O)c1c[nH]c2ncc(-c3ccc(OCCN4CCCCC4)cc3)nc12` [Example I-363, 2,2-Dimethyl-1-{2-[4-(2-piperidin-1-yl-ethoxy)-phenyl]-5H-pyrrolo[2,3-b]pyrazin-7-yl}-propan-1-one] yielded a melting point of 207 to 208 °C.

Molecule `CCNC(=O)c1cccc(-c2cnc3[nH]cc(C(=O)C(C)(C)C)c3n2)c1` [Example I-365, 3-[7-(2,2-Dimethyl-propionyl)-5H-pyrrolo[2,3-b]pyrazin-2-yl]-N-ethyl-benzamide] registered a melting point of 232 to 233 °C.

Take `CC1(C(=O)c2c[nH]c3ncc(-c4ccc(OCCN5CCCCC5)cc4)nc23)CCCCC1` [Example I-368, (1-Methyl-cyclohexyl)-{2-[4-(2-piperidin-1-yl-ethoxy)-phenyl]-5H-pyrrolo[2,3-b]pyrazin-7-yl}-methanone]: the melting point is 180 to 182 °C.

With `CC(C)(C)C(=O)c1c[nH]c2ncc(-c3cccc(-c4cn[nH]c4)c3)nc12` [Example I-369, 2,2-Dimethyl-1-{2-[3-(1H-pyrazol-4-yl)-phenyl]-5H-pyrrolo[2,3-b]pyrazin-7-yl}-propan-1-one], the melting point was greater than 300 °C.

The molecule `COc1cc(-c2cnc3[nH]cc(C(=O)N4CCC(C)(C)C4)c3n2)cc(OC)c1OC` [Example I-395, (3,3-Dimethyl-pyrrolidin-1-yl)-[2-(3,4,5-trimethoxy-phenyl)-5H-pyrrolo[2,3-b]pyrazin-7-yl]-methanone] registered a melting point of 228 to 230 °C.

As to `CC(C)(C)C(=O)c1c[nH]c2ncc(-c3cccc(N4CCC(O)C4)c3)nc12` (stereo not drawn) [Example I-402, 1-{2-[3-(3-Hydroxy-pyrrolidin-1-yl)-phenyl]-5H-pyrrolo[2,3-b]pyrazin-7-yl}-2,2-dimethyl-propan-1-one], the melting point fell in the range of 245 to 248 °C.

`CC(C)(C)C(=O)c1c[nH]c2ncc(-c3cccc(NCCS(C)(=O)=O)c3)nc12` [Example I-407, 1-{2-[3-(2-Methanesulfonyl-ethylamino)-phenyl]-5H-pyrrolo[2,3-b]pyrazin-7-yl}-2,2-dimethyl-propan-1-one] showed a melting point of 205 to 206 °C.

Turning to `CC(=O)Nc1ccc(S(=O)(=O)Nc2cccc(-c3cnc4[nH]cc(C(=O)C(C)(C)C)c4n3)c2)cc1` [Example I-412, N-(4-{3-[7-(2,2-Dimethyl-propionyl)-5H-pyrrolo[2,3-b]pyrazin-2-yl]-phenylsulfamoyl}-phenyl)-acetamide], the melting point was in the range of 226 to 228 °C.

Take `CC(=O)Nc1ccc(S(=O)(=O)Nc2cc(-c3cnc4[nH]cc(C(=O)C(C)(C)C)c4n3)ccc2C)cc1` [Example I-415, N-(4-{5-[7-(2,2-Dimethyl-propionyl)-5H-pyrrolo[2,3-b]pyrazin-2-yl]-2-methyl-phenylsulfamoyl}-phenyl)-acetamide]: the melting point was in the range of 274 to 276 °C.

With `Cc1ccc(-c2cnc3[nH]cc(C(=O)C(C)(C)C)c3n2)cc1NS(=O)(=O)c1ccc(N)cc1` [Example I-416, 4-Amino-N-{5-[7-(2,2-dimethyl-propionyl)-5H-pyrrolo[2,3-b]pyrazin-2-yl]-2-methyl-phenyl}-benzenesulfonamide], the melting point was 264 to 266 °C.

The molecule `CC1(O)CCN(c2cccc(-c3cnc4[nH]cc(C(=O)C(C)(C)C)c4n3)c2)C1` (stereo not drawn) [Example I-417, 1-{2-[3-(3-Hydroxy-3-methyl-pyrrolidin-1-yl)-phenyl]-5H-pyrrolo[2,3-b]pyrazin-7-yl}-2,2-dimethyl-propan-1-one] gave a melting point of 237 to 239 °C.

As to `COc1cc(-c2cnc3[nH]cc(C(=O)O)c3n2)cc(OC)c1OC` [Example I-490, 2-(3,4,5-Trimethoxy-phenyl)-5H-pyrrolo[2,3-b]pyrazine-7-carboxylic acid], the melting point was 237.8 to 238.4 °C.

As a reminder, the melting point is the temperature, or range, at which the solid turns liquid.
